Data from ChEMBL document CHEMBL1201862, “PubChem BioAssay data set” (2004).
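Tested at 5 concentrations; 48 h exposure; 96-well plates; endpoints linearly interpolated, else capped at highest concentration. GI50: concentration for 50% inhibition of growth.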 Activity calls are given as the source filed them. No stated cut-off is given here; in the data, active = GI50 up to about 1.1 µM and inactive = higher.

Key:
Test in all cases: NCI-60 cell line screen, 48 h
[1] = tested on: 786-0
[2] = tested on: A549
[3] = tested on: ACHN
[4] = tested on: CCRF-CEM
[5] = tested on: COLO 205
[6] = tested on: DLD-1
[7] = tested on: DMS-114
[8] = tested on: DMS-273
[9] = tested on: EKVX
[10] = tested on: HCC 2998
[11] = tested on: HCT-116
[12] = tested on: HCT-15
[13] = tested on: HL-60
[14] = tested on: HOP-62
[15] = tested on: HT-29
[16] = tested on: IGROV-1
[17] = tested on: K562
[18] = tested on: KM-20L2
[19] = tested on: KM12
[20] = tested on: LOX IMVI
[21] = tested on: LXFL 529
[22] = tested on: M14
[23] = tested on: M19-MEL
[24] = tested on: MOLT-4
[25] = tested on: Malme-3M
[26] = tested on: NCI-H226
[27] = tested on: NCI-H23
[28] = tested on: NCI-H460
[29] = tested on: NCI-H522
[30] = tested on: OVCAR-3
[31] = tested on: OVCAR-8
[32] = tested on: RPMI-8226
[33] = tested on: RXF 393
[34] = tested on: SF-268
[35] = tested on: SF-295
[36] = tested on: SF-539
[37] = tested on: SK-MEL-28
[38] = tested on: SK-OV-3
[39] = tested on: SN12C
[40] = tested on: SNB-19
[41] = tested on: SNB-75
[42] = tested on: SNB-78
[43] = tested on: SR
[44] = tested on: SW-620
[45] = tested on: TK-10
[46] = tested on: U-251
[47] = tested on: UACC-257
[48] = tested on: UACC-62
[49] = tested on: UO-31
[50] = tested on: A498
[51] = tested on: CAKI-1
[52] = tested on: HOP-18
[53] = tested on: HOP-92
[54] = tested on: OVCAR-4
[55] = tested on: OVCAR-5
[56] = tested on: SK-MEL-2
[57] = tested on: SK-MEL-5

Measured: GI50

COCOc1ccc(Cn2c(=O)n(C)c(=O)c3c2ncn3C)cc1[N+](=O)[O-]
> 100 µM: [12]
inactive: [1] > 100 µM | [2] > 100 µM | [3] > 100 µM | [4] > 100 µM | [5] > 100 µM | [6] > 100 µM | [7] 44.6 µM | [8] > 100 µM | [9] 54.7 µM | [10] > 100 µM | [11] > 100 µM | [13] > 100 µM | [14] > 10 µM | [15] 10.2 µM | [16] > 100 µM | [17] > 100 µM | [18] > 100 µM | [19] > 100 µM | [20] > 100 µM | [21] 79.8 µM | [22] > 100 µM | [23] > 100 µM | [24] 91.8 µM | [25] > 100 µM | [26] 46.3 µM | [27] 80.2 µM | [28] > 100 µM | [29] > 100 µM | [30] > 100 µM | [31] > 100 µM | [32] 66.2 µM | [33] > 100 µM | [34] > 100 µM | [35] 25.7 µM | [36] > 100 µM | [37] > 100 µM | [38] 49.3 µM | [39] > 100 µM | [40] > 100 µM | [41] 59.6 µM | [42] > 100 µM | [43] > 100 µM | [44] > 100 µM | [45] > 100 µM | [46] > 100 µM | [47] 57.5 µM | [48] > 100 µM | [49] > 100 µM

CC[C@H](C)C(=O)O[C@H]1C[C@@H](C)C=C2C=C[C@H](C)[C@H](CC[C@@H]3C[C@@H](O)CC(=O)O3)[C@H]21 [LOVASTATIN]
inactive: [1] 9.77 µM | [50] 1.21 µM | [2] 21.2 µM | [3] 1.76 µM | [51] 1.17 µM | [4] 18.4 µM | [5] 5.73 µM | [6] > 30 µM | [7] > 30 µM | [8] 8.69 µM | [9] > 30 µM | [10] 15.1 µM | [13] 8.83 µM | [52] > 30 µM | [14] 13.1 µM | [15] 11.6 µM | [16] 5.96 µM | [17] 19.5 µM | [18] > 30 µM | [19] > 30 µM | [20] 1.58 µM | [21] 7.76 µM | [22] 12.3 µM | [23] 2.42 µM | [24] 26.8 µM | [25] > 30 µM | [26] 11.9 µM | [28] 18 µM | [30] > 30 µM | [54] > 30 µM | [55] > 30 µM | [31] 7.83 µM | [32] > 30 µM | [33] 2.52 µM | [37] 25 µM | [56] 13.2 µM | [57] 6.7 µM | [38] 11.8 µM | [39] 1.71 µM | [43] 2.11 µM | [44] 7.36 µM | [45] 16.2 µM | [47] 20 µM | [48] 1.53 µM | [49] 6.27 µM
3.12 µM: [12]
active: [53] 0.0308 µM | [27] 1.02 µM

CNS(=O)(=O)NNS(=O)(=O)c1ccc2ccccc2c1
> 100 µM: [12]
inactive: [1] > 100 µM | [50] > 100 µM | [2] > 100 µM | [3] > 100 µM | [51] > 100 µM | [4] > 100 µM | [5] > 100 µM | [6] > 100 µM | [7] > 100 µM | [8] > 100 µM | [9] > 100 µM | [10] > 100 µM | [11] > 100 µM | [13] > 100 µM | [52] > 100 µM | [14] > 100 µM | [15] > 100 µM | [16] > 100 µM | [17] > 100 µM | [18] > 100 µM | [19] > 100 µM | [20] > 100 µM | [21] > 100 µM | [22] > 100 µM | [23] > 100 µM | [24] > 100 µM | [25] > 100 µM | [26] > 100 µM | [27] > 100 µM | [28] 40.2 µM | [29] > 100 µM | [30] > 100 µM | [54] > 100 µM | [55] > 100 µM | [31] > 100 µM | [32] > 100 µM | [34] > 100 µM | [35] > 100 µM | [36] > 100 µM | [37] > 100 µM | [56] > 100 µM | [57] > 100 µM | [38] > 100 µM | [39] > 100 µM | [40] > 100 µM | [41] > 100 µM | [42] > 100 µM | [43] 80.2 µM | [44] > 100 µM | [45] > 100 µM | [46] > 100 µM | [47] > 100 µM | [48] > 100 µM | [49] > 100 µM
